Results from patent US11590139B2, “Substituted aminopurine compounds, compositions thereof, and methods of treatment therewith” (Signal Pharmaceuticals, LLC, priority 2014, dated 2023).

Tested on: Lox-IMVI melanoma cell line
Experiment: Lox-IMVI anti-proliferative assay (growth inhibition, Cell Titer-Glo)
Type: cell-based, human
Conditions: Homo sapiens; Lox-IMVI melanoma cell line, anti-proliferative assay; read-out: Activity (IC50 activity level)
How it was run: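 First, compound was dispensed as a 10-point 3-fold series (0.5 nM–10 μM, duplicate). Then cells in RPMI + 10% FBS were added and grown 72 h at 37 °C with 0.2% DMSO. Finally, ATP luminescence was read and IC50 calculated versus DMSO control.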

First: C[C@]1(C(N)=O)CC[C@@H](n2c(Nc3c(F)cc(Cl)cc3F)nc3cnc(N[C@H]4CCC[C@H](O)C4)nc32)CC1 [Example 614, (1R,4s)-4-(8-(4-chloro-2,6-difluorophenylamino)-2-((1S,3S)-3-hydroxycyclohexylamino)-9H-purin-9-yl)-1-methylcyclohexanecarboxamide]
Second: C[C@]1(C(N)=O)CC[C@@H](n2c(Nc3c(F)cc(Cl)cc3F)nc3cnc(N[C@@H]4CCC[C@@H](O)C4)nc32)CC1 [Example 622, (1S,4s)-4-(8-(4-chloro-2,6-difluorophenylamino)-2-((1R,3R)-3-hydroxycyclohexylamino)-9H-purin-9-yl)-1-methylcyclohexanecarboxamide]
The IC50 of the first is lower: less than 250 nM for the first, 500 to 1000 nM for the second. The first is the more potent here.

First: C[C@]1(C(N)=O)CC[C@@H](n2c(Nc3c(F)cc(C#N)cc3Cl)nc3cnc(N[C@H]4CCC[C@H](O)C4)nc32)CC1 [Example 615, (1R,4s)-4-(8-(2-chloro-4-cyano-6-fluorophenylamino)-2-((1S,3S)-3-hydroxycyclohexylamino)-9H-purin-9-yl)-1-methylcyclohexanecarboxamide]
Second: C[C@]1(C(N)=O)CC[C@@H](n2c(Nc3c(F)cc(C#N)cc3Cl)nc3cnc(N[C@@H]4CCC[C@@H](O)C4)nc32)CC1 [Example 623, (1S,4s)-4-(8-(2-chloro-4-cyano-6-fluorophenylamino)-2-((1R,3R)-3-hydroxycyclohexylamino)-9H-purin-9-yl)-1-methylcyclohexanecarboxamide]
The IC50 of the first is lower: less than 250 nM for the first, 250 to 500 nM for the second.

First: C[C@]1(C(N)=O)CC[C@@H](n2c(Nc3c(Cl)cc(C#N)cc3Cl)nc3cnc(N[C@H]4CCC[C@H](O)C4)nc32)CC1 [Example 616, (1R,4s)-4-(8-(2,6-dichloro-4-cyanophenylamino)-2-((1S,3S)-3-hydroxycyclohexylamino)-9H-purin-9-yl)-1-methylcyclohexanecarboxamide]
Second: C[C@]1(C(N)=O)CC[C@@H](n2c(Nc3c(Cl)cc(C#N)cc3Cl)nc3cnc(N[C@@H]4CCC[C@@H](O)C4)nc32)CC1 [Example 624, (1S,4s)-4-(8-(2,6-dichloro-4-cyanophenylamino)-2-((1R,3R)-3-hydroxycyclohexylamino)-9H-purin-9-yl)-1-methylcyclohexanecarboxamide]
The IC50 of the first is lower: less than 250 nM for the first, 250 to 500 nM for the second. The first is the more potent here.

C[C@]1(C(N)=O)CC[C@@H](n2c(Nc3c(F)cc(F)cc3F)nc3cnc(N[C@@H]4CCC[C@@H](O)C4)nc32)CC1 [Example 617, (1S,4s)-4-(2-((1R,3R)-3-hydroxycyclohexylamino)-8-(2,4,6-trifluorophenylamino)-9H-purin-9-yl)-1-methylcyclohexanecarboxamide] and C[C@]1(C(N)=O)CC[C@@H](n2c(Nc3c(F)cc(F)cc3F)nc3cnc(N[C@H]4CCC[C@@H](O)C4)nc32)CC1 [Example 625, (1R,4s)-4-(2-((1S,3R)-3-hydroxycyclohexylamino)-8-(2,4,6-trifluorophenylamino)-9H-purin-9-yl)-1-methylcyclohexanecarboxamide] cannot be ordered by IC50: greater than 1000 nM for the first, greater than 1000 nM for the second.

C[C@]1(C(N)=O)CC[C@@H](n2c(Nc3c(F)cc(F)cc3Cl)nc3cnc(N[C@@H]4CCC[C@@H](O)C4)nc32)CC1 [Example 618, (1S,4s)-4-(8-(2-chloro-4,6-difluorophenylamino)-2-((1R,3R)-3-hydroxycyclohexylamino)-9H-purin-9-yl)-1-methylcyclohexanecarboxamide] and C[C@]1(C(N)=O)CC[C@@H](n2c(Nc3c(F)cc(F)cc3Cl)nc3cnc(N[C@H]4CCC[C@@H](O)C4)nc32)CC1 [Example 626, (1R,4s)-4-(8-(2-chloro-4,6-difluorophenylamino)-2-((1S,3R)-3-hydroxycyclohexylamino)-9H-purin-9-yl)-1-methylcyclohexanecarboxamide] fall in the same range of IC50: 500 to 1000 nM for the first, 500 to 1000 nM for the second.

Compared with C[C@]1(C(N)=O)CC[C@@H](n2c(Nc3c(Cl)cc(Cl)cc3Cl)nc3cnc(N[C@@H]4CCC[C@@H](O)C4)nc32)CC1 [Example 619, (1S,4s)-4-(2-((1R,3R)-3-hydroxycyclohexylamino)-8-(2,4,6-trichlorophenylamino)-9H-purin-9-yl)-1-methylcyclohexanecarboxamide], C[C@]1(C(N)=O)CC[C@@H](n2c(Nc3c(Cl)cc(Cl)cc3Cl)nc3cnc(N[C@H]4CCC[C@@H](O)C4)nc32)CC1 [Example 627, (1R,4s)-4-(2-((1S,3R)-3-hydroxycyclohexylamino)-8-(2,4,6-trichlorophenylamino)-9H-purin-9-yl)-1-methylcyclohexanecarboxamide] is lower in IC50: 500 to 1000 nM for the first, less than 250 nM for the second. The second is the more potent here.

Compared with C[C@]1(C(N)=O)CC[C@@H](n2c(Nc3c(F)cc(Cl)cc3Cl)nc3cnc(N[C@@H]4CCC[C@@H](O)C4)nc32)CC1 [Example 620, (1S,4s)-4-(8-(2,4-dichloro-6-fluorophenylamino)-2-((1R,3R)-3-hydroxycyclohexylamino)-9H-purin-9-yl)-1-methylcyclohexanecarboxamide], C[C@]1(C(N)=O)CC[C@@H](n2c(Nc3c(F)cc(Cl)cc3Cl)nc3cnc(N[C@H]4CCC[C@@H](O)C4)nc32)CC1 [Example 628, (1R,4s)-4-(8-(2,4-dichloro-6-fluorophenylamino)-2-((1S,3R)-3-hydroxycyclohexylamino)-9H-purin-9-yl)-1-methylcyclohexanecarboxamide] is lower in IC50: 500 to 1000 nM for the first, less than 250 nM for the second.

Compared with C[C@]1(C(N)=O)CC[C@@H](n2c(Nc3c(Cl)cc(F)cc3Cl)nc3cnc(N[C@@H]4CCC[C@@H](O)C4)nc32)CC1 [Example 621, (1S,4s)-4-(8-(2,6-dichloro-4-fluorophenylamino)-2-((1R,3R)-3-hydroxycyclohexylamino)-9H-purin-9-yl)-1-methylcyclohexanecarboxamide], C[C@]1(C(N)=O)CC[C@@H](n2c(Nc3c(Cl)cc(F)cc3Cl)nc3cnc(N[C@H]4CCC[C@@H](O)C4)nc32)CC1 [Example 631, (1R,4s)-4-(8-(2,6-dichloro-4-fluorophenylamino)-2-((1S,3R)-3-hydroxycyclohexylamino)-9H-purin-9-yl)-1-methylcyclohexanecarboxamide] is lower in IC50: greater than 1000 nM for the first, 500 to 1000 nM for the second. The second is the more potent here.

N#Cc1cc(F)c(Nc2nc3cnc(N[C@@H]4CCOC[C@H]4F)nc3n2[C@H]2CC[C@@H](C(N)=O)CC2)c(Cl)c1 [Example 629, (1S,4s)-4-(8-(2-chloro-4-cyano-6-fluorophenylamino)-2-((3S,4R)-3-fluorotetrahydro-2H-pyran-4-ylamino)-9H-purin-9-yl)cyclohexanecarboxamide] and NC(=O)[C@H]1CC[C@@H](n2c(Nc3c(F)cc(F)cc3Cl)nc3cnc(N[C@@H]4CCOC[C@H]4F)nc32)CC1 [Example 630, (1S,4s)-4-(8-(2-chloro-4,6-difluorophenylamino)-2-((3S,4R)-3-fluorotetrahydro-2H-pyran-4-ylamino)-9H-purin-9-yl)cyclohexanecarboxamide] cannot be ordered by IC50: less than 250 nM for the first, less than 250 nM for the second.

C[C@]1(C(N)=O)CC[C@@H](n2c(Nc3c(F)cc(Cl)cc3F)nc3cnc(N[C@H]4CCC[C@@H](O)C4)nc32)CC1 [Example 632, (1R,4s)-4-(8-(4-chloro-2,6-difluorophenylamino)-2-((1S,3R)-3-hydroxycyclohexylamino)-9H-purin-9-yl)-1-methylcyclohexanecarboxamide] and C[C@]1(C(N)=O)CC[C@@H](n2c(Nc3c(F)cc(C#N)cc3Cl)nc3cnc(N[C@H]4CCC[C@@H](O)C4)nc32)CC1 [Example 633, (1R,4s)-4-(8-(2-chloro-4-cyano-6-fluorophenylamino)-2-((1S,3R)-3-hydroxycyclohexylamino)-9H-purin-9-yl)-1-methylcyclohexanecarboxamide] fall in the same range of IC50: 500 to 1000 nM for the first, 500 to 1000 nM for the second.
